Laboratory results: US10647675B2 (priority 2015, dated 2020)
In brackets after ≈: the same amount, converted by molar mass.

Key:
[1] = tested on: Trichophyton mentagrophytes SM-110; test: Antifungal activity evaluation test: minimum inhibitory concentration (MIC), broth dilution by reference to CLSI M38-A2; format: cell-based; conditions: SM110, read-out: MIC (T. menta.)
Procedure: (§1) The minimum inhibitory concentration (MIC) for Trichophyton mentagrophytes and Trichophyton rubrum was measured by the following procedure by reference to Clinical and Laboratory standards Institute (CLSI) guidelines M38-A2. Reference document for the measurement method: National Committee for a Clinical Laboratory Standards. Reference method for broth dilution antifungal susceptibility testing of filamentous fungi. Approved standard Second edition M38-A2. Wayne, Pa.: National Committee for a Clinical Laboratory Standards, 2008. • Test compound solution: A test compound was dissolved in dimethyl sulfoxide (DMSO) at a concentration of 2.5 mg/mL to give a stock solution. The stock solution was appropriately diluted with DMSO to prepare a 2-fold dilution series. As control compounds, terbinafine and amorolfine were used. • Test strains: Trichophyton mentagrophytes SM-110 and Trichophyton rubrum KD-1130 were used. • Preparation of fungal culture to be inoculated: The above-mentioned test strain was suspended in 0.05% Tween 80-containing saline, and the fungi of the genus Trichophyton were prepared to a fungal concentration of 1×10^6 cells/mL by using a hemocytometer. Then, using MOPS-buffered RPMI 1640 medium (pH 7.0) as a test medium, a fungal culture of the fungi of the genus Trichophyton was diluted 250-fold (4×10^3 cells/mL) to give a fungal culture for inoculation. • MIC measurement of genus Trichophyton fungi: MOPS-buffered RPMI 1640 medium (pH 7.0) was dispensed by 100 μL to given wells of a 96 well U-bottom microplate. Then, the test compound solution (2 μL) was added, the mixture was sufficiently stirred by a plate mixer. The fungal culture (100 μL) was inoculated and the mixture was cultured at 35° C. for 4 days (final fungal concentration: 2×10^3 cells/mL). After the culture, the minimum drug concentration of a well in which a growth inhibitory action of not less than 80% was visually observed as compared to a growth control was taken as a minimum inhibitory concentration (MIC: μg/mL).
(§2) The abbreviations in the Tables mean the following fungi and compounds. • T. menta.: Trichophyton mentagrophytes • T. rubrum: Trichophyton rubrum • TBF: terbinafine • AMF: amorolfine

[2] = tested on: Trichophyton rubrum KD-1130; test: as above; format: cell-based; conditions: KD1130, read-out: MIC (T. rubrum)
Procedure: as §1, §2

| MIC [1] [µg/mL] | MIC [2] [µg/mL] | Structure (SMILES) |
| --- | --- | --- |
| 0.2 to 0.78 (≈ 0.543 to 2.12 µM) | 0.2 to 0.78 (≈ 0.543 to 2.12 µM) | FC(F)(F)c1ccc(Oc2ncccc2-c2cccc3nccnc23)cn1 [I-37, 5-(2-{[6-(trifluoromethyl)pyridin-3-yl]oxy}pyridin-3-yl)quinoxaline] |
| ≤ 0.1 | ≤ 0.1 | FC(F)(F)c1ccc(Oc2ncccc2-c2cccc3c2OCCC3)cn1 [I-38, 3-(chroman-8-yl)-2-{[6-(trifluoromethyl)pyridin-3-yl]oxy}pyridine] |
| ≤ 0.1 | 0.2 to 0.78 (≈ 0.505 to 1.97 µM) | FC1(F)Oc2cccc(-c3cccnc3Oc3ccc(C(F)(F)F)nc3)c2O1 [I-39, 3-(2,2-difluorobenzo[1,3]dioxol-4-yl)-2-{[6-(trifluoromethyl)pyridin-3-yl]oxy}pyridine] |
| 0.2 to 0.78 (≈ 0.54 to 2.11 µM) | 0.2 to 0.78 (≈ 0.54 to 2.11 µM) | O=C1CCc2cccc(-c3cccnc3Oc3ccc(C(F)(F)F)nc3)c21 [I-40, 7-(2-{[6-(trifluoromethyl)pyridin-3-yl]oxy}pyridin-3-yl)-2,3-dihydro-1H-inden-1-one] |
| ≤ 0.1 | ≤ 0.1 | Fc1cc2c(c(-c3cccnc3Oc3ccc(C(F)(F)F)nc3)c1)OCC2 [I-41, 3-(5-fluoro-2,3-dihydrobenzofuran-7-yl)-2-{[6-(trifluoromethyl)pyridin-3-yl]oxy}pyridine] |
| 0.2 to 0.78 (≈ 0.563 to 2.2 µM) | 0.2 to 0.78 (≈ 0.563 to 2.2 µM) | FC(F)(F)c1ccc(Oc2ncccc2-c2cccc3cc[nH]c23)cn1 [I-42, 7-(2-{[6-(trifluoromethyl)pyridin-3-yl]oxy}pyridin-3-yl)-1H-indole] |
| 0.2 to 0.78 (≈ 0.544 to 2.12 µM) | 0.2 to 0.78 (≈ 0.544 to 2.12 µM) | FC(F)(F)c1ccc(Oc2ncccc2-c2cccc3ccncc23)cn1 [I-43, 8-(2-{[6-(trifluoromethyl)pyridin-3-yl]oxy}pyridin-3-yl)-isoquinoline] |
| ≤ 0.1 | ≤ 0.1 | FC(F)(F)c1ccc(Oc2ncccc2-c2cccc3ccnn23)cn1 [I-44, 7-(2-{[6-(trifluoromethyl)pyridin-3-yl]oxy}pyridin-3-yl)-pyrazolo[1,5-a]pryidine] |
| 1.56 to 6.25 (≈ 4.37 to 17.5 µM) | 0.2 to 0.78 (≈ 0.56 to 2.18 µM) | FC(F)(F)c1ccc(Oc2ncccc2-c2cccc3ncnn23)cn1 [I-45, 5-(2-{[6-(trifluoromethyl)pyridin-3-yl]oxy}pyridin-3-yl)-[1,2,4]triazolo[1,5-a]pryidine] |
| 1.56 to 6.25 (≈ 4.2 to 16.8 µM) | 1.56 to 6.25 (≈ 4.2 to 16.8 µM) | Cn1nc(-c2cccnc2Oc2ccc(C(F)(F)F)nc2)c2cccnc21 [I-47, 1-methyl-3-(2-{[6-(trifluoromethyl)pyridin-3-yl]oxy}pyridin-3-yl)-1H-pyrazolo[3,4-b]pryidine] |
| 1.56 to 6.25 (≈ 4.2 to 16.8 µM) | 0.2 to 0.78 (≈ 0.539 to 2.1 µM) | Cc1cc(-c2cccnc2Oc2ccc(C(F)(F)F)nc2)n2nccc2n1 [I-48, 5-methyl-7-(2-{[6-(trifluoromethyl)pyridin-3-yl]oxy}pyridin-3-yl)-pyrazolo[1,5-a]pyrimidine] |
| 1.56 to 6.25 (≈ 4.38 to 17.5 µM) | 1.56 to 6.25 (≈ 4.38 to 17.5 µM) | FC(F)(F)c1ccc(Oc2ncccc2-c2cnn3ccccc23)cn1 [I-49, 3-(2-{[6-(trifluoromethyl)pyridin-3-yl]oxy}pyridin-3-yl)-pyrazolo[1,5-a]pryidine] |
| 0.2 to 0.78 (≈ 0.561 to 2.19 µM) | 0.2 to 0.78 (≈ 0.561 to 2.19 µM) | FC(F)(F)c1ccc(Oc2ncccc2-n2ccc3cccnc32)cn1 [I-50, 1-(2-{[6-(trifluoromethyl)pyridin-3-yl]oxy}pyridin-3-yl)-1H-pyrrolo[2,3-b]pryidine] |
| ≤ 0.1 | ≤ 0.1 | FC(F)(F)c1ccc(Oc2ncccc2-c2cccc3c(Cl)cnn23)cn1 [I-51, 3-chloro-7-(2-{[6-(trifluoromethyl)pyridin-3-yl]oxy}pyridin-3-yl)-pyrazolo[1,5-a]pyridine] |
| 0.2 to 0.78 (≈ 0.46 to 1.79 µM) | ≤ 0.1 | FC(F)(F)c1ccc(Oc2ncccc2-c2cccc3c(Br)cnn23)cn1 [I-52, 3-bromo-7-(2-{[6-(trifluoromethyl)pyridin-3-yl]oxy}pyridin-3-yl)-pyrazolo[1,5-a]pyridine] |
| 0.2 to 0.78 (≈ 0.54 to 2.11 µM) | ≤ 0.1 | Cc1cnn2c(-c3cccnc3Oc3ccc(C(F)(F)F)nc3)cccc12 [I-53, 3-methyl-7-(2-{[6-(trifluoromethyl)pyridin-3-yl]oxy}pyridin-3-yl)-pyrazolo[1,5-a]pyridine] |
